Data on four compounds can be found in US9907790B2, “Solid forms of an ASK1 inhibitor” (Gilead Sciences, Inc., priority 2014, dated 2018).

Assay type in all cases: physicochemical
Series [1] in a line: Form change on heating, drying or exposure to ambient conditions. Particulars: for form change at ambient conditions: ambient temperature and humidity / storage at ambient conditions. The source says: Form V has only been truly isolated by growth of single crystals.
Isolated solids were dried with filter paper to remove residual solvents and analyzed by DSC, TGA and KF. […] (FIG. 45).
The sample was stirred for more than two months before being placed into storage without agitation and at ambient conditions. […] The material was collected by vacuum filtration and dried under ambient conditions. […] (FIG. 48).

Series [2] can be described thus: Competition slurries between crystalline forms. Particulars: ethanol, agitating overnight.
Series [3] is described as follows: Solubility of Compound I in EtOH. Particulars: ethanol, organic solvent or mixture. The procedure:
The crystallization was then continued in line with Method 1 outlined above. After filtration, the Form I solids are dried in a vacuum oven at about 45-50° C.

Series [4] in a line: Stable form screen of Compound I (suspension in solvents at RT, solids analysed by XRPD). Particulars: starting from Compound I Form I. How it is done: Compound I Form I was suspended with stirring in capped glass vials at RT. Samples from the suspensions were centrifuged/filtered and the isolated solids and liquids were analyzed. Solids were analyzed by XRPD and liquids were analyzed for solubility by […]. Sampling and analysis were performed after one day and greater than fourteen days.

In brackets after ≈: the same amount, converted by molar mass.

`Cc1cc(F)c(C(=O)Nc2cccc(-c3nncn3C(C)C)n2)cc1-n1cnc(C2CC2)c1` [Compound I Form II, 5-(4-cyclopropyl-1H-imidazol-1-yl)-N-(6-(4-isopropyl-4H-1,2,4-triazol-3-yl)pyridin-2-yl)-2-fluoro-4-methylbenzamide]: the results for the “form change after heating” value in series [1] (heating to about 110° C.) and in series [1] (heating up to about 180° C.) were “No form change” and “re-crystallizes to Compound I Form VI”, respectively.
With `Cc1cc(F)c(C(=O)Nc2cccc(-c3nncn3C(C)C)n2)cc1-n1cnc(C2CC2)c1` [Compound I Form VII, 5-(4-cyclopropyl-1H-imidazol-1-yl)-N-(6-(4-isopropyl-4H-1,2,4-triazol-3-yl)pyridin-2-yl)-2-fluoro-4-methylbenzamide], in series [2], the “outcome of competitive slurry with Compound I Form I” value is recorded as “full conversion of Compound I Form VII to Compound I Form I”. In addition, in series [1], the “form change at ambient conditions” value is on record as “rapidly converts back to Compound I Form IV”.
For the compound `Cc1cc(F)c(C(=O)Nc2cccc(-c3nncn3C(C)C)n2)cc1-n1cnc(C2CC2)c1` [Compound I Form IX, 5-(4-cyclopropyl-1H-imidazol-1-yl)-N-(6-(4-isopropyl-4H-1,2,4-triazol-3-yl)pyridin-2-yl)-2-fluoro-4-methylbenzamide], the “form change at ambient conditions” value in series [1] is given as “converts to Form I”.
The solubility is the dissolved amount per volume that the medium holds. As for `Cc1cc(F)c(C(=O)Nc2cccc(-c3nncn3C(C)C)n2)cc1-n1cnc(C2CC2)c1` [Compound I, 5-(4-cyclopropyl-1H-imidazol-1-yl)-N-(6-(4-isopropyl-4H-1,2,4-triazol-3-yl)pyridin-2-yl)-2-fluoro-4-methylbenzamide], the solubility in series [3] was roughly 20 mg/mL (≈ 44.9 mM). Further, the “14+ Day XRPD” value in series [4] (suspended in 2-propanol at RT), in series [4] (suspended in ACN at RT), in series [4] (suspended in EtOAc at RT), in series [4] (suspended in Ethanol at RT), in series [4] (suspended in IPAC at RT) and in series [4] (suspended in MTBE at RT) was “Form I” in each case. Moreover, the “14+ Day XRPD” value in series [4] (suspended in THF at RT), in series [4] (suspended in acetone at RT), in series [4] (suspended in methanol at RT), in series [4] (suspended in n-heptane at RT) and in series [4] (suspended in water at RT) was “Form I” throughout. For the same compound, the “24 Hour XRPD” value in series [4] (suspended in 2-propanol at RT) was “Form I”; in series [4] (suspended in ACN at RT), “Form I”; in series [4] (suspended in DCM at RT), “V, II”; in series [4] (suspended in EtOAc at RT) it was “Form I”; in series [4] (suspended in Ethanol at RT), “Form I”; in series [4] (suspended in IPAC at RT), “Form I”. Besides, the “24 Hour XRPD” value in series [4] (suspended in MTBE at RT), in series [4] (suspended in THF at RT), in series [4] (suspended in acetone at RT), in series [4] (suspended in methanol at RT), in series [4] (suspended in n-heptane at RT) and in series [4] (suspended in water at RT) was “Form I” in each case.
